Two molecules from patent US9987296B2, “Compositions including anthocyanin or anthocyanidin for the prevention or treatment of Articular cartilage-associated conditions” (priority 2008, dated 2018) can be followed below.

“Also recorded” adds a separate entry of the source.

Type in all cases: cell-based
The test system of test [1] is bovine cartilage explants. Kind of test: Mucopolysaccharide production (35 Sulfur uptake) in bovine cartilage explants. The method, then:
Bovine cartilage explants were placed in culture including 10% FCS and Vitamin C. IL-1 was added to a test population and IL-1 was not added to control. Explants were cultured for 24 hours. Kuromanin chloride was then added to each culture. Mucopolysaccharides were measured using radioactive 35 Sulfur uptake.

Another test deals with bovine chondrocytes. Kind of test: Matrix synthesis rate (35S) of bovine chondrocytes in alginate beads. The note with it: 100 uM with TGF-β 10 ng/mL, 24 hours.
In the next test the test system is TGF-β. Description: TGF-β by ELISA after exposure of fibroblast cells to dextrose. The conditions noted are these: fibroblasts. The method, then: (§1) For completeness, the relationship between a saccharide (dextrose) and TGF-β was also examined. Fibroblasts were treated with varying amounts of dextrose and measured for the release of TGF-β. […] It appeared that 0.5% glucose provided the greatest proliferation of fibroblasts.
On the technique in general: An ELISA detects its analyte on a solid surface through an enzyme-linked reagent.

In another test the test system is fibroblast cells. Kind of test: Fibroblast cell proliferation. The conditions noted are these: for cell proliferation: fibroblasts. The method, then:
as §1

Method for bovine chondrocytes: Chondrocytes were isolated from weight-bearing regions of young (18-30 months old) bovine femoral condyles. Primary cells were obtained from 3 different animals and suspended in beads of 2% alginate. The alginate beads were precultured in DMEM supplemented with 10% calf serum for 48 hours. Before the experiments, the chondrocytes were serum-starved overnight with 0.1% serum to reduce the effect of serum and to reduce anabolic activity to baseline.
For each treatment condition, 10 millicuries of ^35S was added to each well and incubated for the appropriate duration. At the appropriate harvest time point, each well was then washed extensively with PBS (5-6 times with 500 uL, of PBS), before trypsin and EDTA was added to dissolve alginate. After 20-30 minutes, the dissolved gels and released cells were transferred into 1.5 ml Eppendorf tubes with 150 uL, of calf serum (to promote pellet formation) and the cells were centrifuged at 2000 rpm for 5 minutes. The supernatant was removed via pipette without disturbing the cell pellet. The remaining cell and supernatant (approximately 300 ul) was then mixed with 500 uL of PBS and transferred to scintillation vials, to which 5 ml of scintillation fluid was dispensed. Each scintillation vial was capped, thoroughly vortexed and then placed in a gamma counter to measure gamma radiation emission for each sample. Each sample was measured for 5 minutes.

As to `OC[C@H]1O[C@@H](Oc2cc3c(O)cc(O)cc3[o+]c2-c2ccc(O)c(O)c2)[C@H](O)[C@@H](O)[C@@H]1O.[Cl-]` [Kuromanin chloride], the production of mucopolysaccharides result in test [1] (bovine cartilage preincubated with IL-1) is listed as “increased production of mucopolysaccharides; also recorded: increase of mucopolysaccharide”; in test [1] (control bovine cartilage explants, no IL-1, listed as kuromanin) it was “increase of mucopolysaccharide”; in test [1] (control bovine cartilage explants, no IL-1, listed as kuromanin chloride), “increased production of mucopolysaccharides”. Further, the “matrix synthesis rates (growth factor synergy)” value with bovine chondrocytes is recorded as “synergistic effect on matrix synthesis rates”.

As to `O=C[C@H](O)[C@@H](O)[C@H](O)[C@H](O)CO` [glucose], in the test on TGF-β (higher amounts of glucose), the “presence of TGF-β” value is “decreased the presence of TGF-β”. In addition, the TGF-β expression result in the test with TGF-β (varying amounts of dextrose) is reported as “does not increase TGF-β expression”. Further, in the test on fibroblast cells, the “concentration providing the greatest proliferation of fibroblasts” value was found to be 0.5%. The cell proliferation result is recorded as “did not” with fibroblast cells (higher concentrations of glucose) and “increased cell proliferation” in the test with fibroblast cells (lower concentrations of glucose).
